Reference: patent publication US20040038222A1 (priority 2001, published 2004)

Legend:
[1] = test system: C57BL/6J and C3H/HeJ primary bone marrow-derived macrophages
KiflC in NIH3T3 cells = conditions: cited from earlier work
KiflC in NIH3T3 cells, sequence (O35071 whole entry): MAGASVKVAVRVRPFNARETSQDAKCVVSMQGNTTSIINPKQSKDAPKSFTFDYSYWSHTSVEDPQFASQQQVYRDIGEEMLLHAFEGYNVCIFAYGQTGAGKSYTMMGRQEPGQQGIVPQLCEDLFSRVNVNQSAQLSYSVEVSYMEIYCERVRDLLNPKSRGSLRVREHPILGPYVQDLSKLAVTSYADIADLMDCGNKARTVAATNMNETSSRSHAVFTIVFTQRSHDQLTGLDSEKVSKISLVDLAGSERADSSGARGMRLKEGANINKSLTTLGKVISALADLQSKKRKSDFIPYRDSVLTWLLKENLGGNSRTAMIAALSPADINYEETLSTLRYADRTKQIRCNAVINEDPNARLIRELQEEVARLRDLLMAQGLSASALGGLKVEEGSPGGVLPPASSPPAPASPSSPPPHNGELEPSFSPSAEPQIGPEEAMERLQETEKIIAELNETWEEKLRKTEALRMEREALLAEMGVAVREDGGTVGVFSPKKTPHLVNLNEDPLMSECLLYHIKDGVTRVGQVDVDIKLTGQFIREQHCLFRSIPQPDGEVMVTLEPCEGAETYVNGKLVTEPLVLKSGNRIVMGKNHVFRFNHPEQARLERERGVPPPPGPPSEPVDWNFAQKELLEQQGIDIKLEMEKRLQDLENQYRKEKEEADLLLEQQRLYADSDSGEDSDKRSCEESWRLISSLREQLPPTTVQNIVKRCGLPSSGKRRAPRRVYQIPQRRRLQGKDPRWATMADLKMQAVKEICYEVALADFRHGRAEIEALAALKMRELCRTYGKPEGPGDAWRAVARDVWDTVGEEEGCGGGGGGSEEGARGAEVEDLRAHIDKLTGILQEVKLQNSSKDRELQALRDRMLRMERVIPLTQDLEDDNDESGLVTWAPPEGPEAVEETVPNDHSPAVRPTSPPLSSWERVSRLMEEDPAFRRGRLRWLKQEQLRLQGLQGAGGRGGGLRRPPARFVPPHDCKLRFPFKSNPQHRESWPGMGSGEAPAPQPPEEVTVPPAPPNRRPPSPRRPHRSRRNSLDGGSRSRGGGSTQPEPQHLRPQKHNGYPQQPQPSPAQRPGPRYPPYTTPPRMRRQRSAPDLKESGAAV

brefeldin A [BFA]
Susceptibility of susceptible macrophages to intoxication with LF in the presence of BFA [1]: unaltered
Relocalization of KiflC (KiflC in NIH3T3 cells): dramatic relocalization of KiflC to the Endoplasmic Reticulum
